Results from patent publication US8569302B2, “Inhibitors of flaviviridae viruses” (Gilead Sciences, Inc., priority 2009, dated 2013).

System: human hepatoma Huh-7 cell line harboring a HCV replicon
Assay: HCV replicon assay (inhibition of viral replication, luciferase readout)
Assay type: cell-based
Conditions: Hepatitis C virus, 72 h, Huh-7 HCV replicon cells, 3 days incubation
In short: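 Read-outs: luciferase luminescence for replication inhibition, corrected by ITMN-191 (100% inhibition) wells, and calcein AM fluorescence for cytotoxicity. Cells were treated for 3 days at 37 °C with ten 3-fold compound dilutions in 0.44% final DMSO. Percent inhibition relative to DMSO was fitted with a Hill equation to give EC50 and CC50.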

Structure (SMILES) | inhibition at 2 µM
CC1=CC[C@H](C(=O)N(c2cc(C#CC(C)(C)C)sc2C(=O)O)[C@H]2CC[C@H](OC3CCOC3)CC2)CC1 (stereo partly drawn) [Compound 335] | 99.9%
CC1=CC[C@H](C(=O)N(c2cc(C#CC(C)(C)C)sc2C(=O)O)[C@H]2CC[C@H](O[C@H]3CCOC3)CC2)CC1 [Compound 336] | 100%
CC1=CC[C@@H](C(=O)N(c2cc(C#CC(C)(C)C)sc2C(=O)O)[C@H]2CC[C@H](Oc3cc(CN(C)C)ccn3)CC2)CC1 [Compound 337, 3-[[4-(4-Dimethylaminomethyl-pyridin-2-yloxy)-trans-cyclohexyl]-(4-methyl-cyclohex-3-enecarbonyl)-amino]-5-(3,3-dimethyl-but-1-ynyl)-thiophene-2-carboxylic acid] | 100%
CN(C)Cc1ccnc(O[C@H]2CC[C@H](N(c3cc(C#CC4(C(F)(F)F)CCC4)sc3C(=O)O)C(=O)[C@H]3CC[C@H](C)CC3)CC2)c1 [Compound 338, 3-((1r,4R)—N-((1r,4R)-4-(4-((dimethylamino)methyl)pyridin-2-yloxy)cyclohexyl)-4-methylcyclohexanecarboxamido)-5-((1-(trifluoromethyl)cyclobutyl)ethynyl)thiophene-2-carboxylic acid] | 99.9%
C[C@H]1CC[C@H](C(=O)N(c2cc(C#CC3(C(F)(F)F)CCC3)sc2C(=O)O)[C@H]2CC[C@H](Oc3ccc(O)nn3)CC2)CC1 [Compound 339, 3-((1r,4R)—N-((1r,4R)-4-(6-hydroxypyridazin-3-yloxy)cyclohexyl)-4-methylcyclohexanecarboxamido)-5-((1-(trifluoromethyl)cyclobutyl)ethynyl)thiophene-2-carboxylic acid] | 99.9%
CN(C)Cc1ccnc(O[C@H]2CC[C@H](N(c3cc(C#CC4(C(F)(F)F)CC4)sc3C(=O)O)C(=O)[C@H]3CC[C@H](C)CC3)CC2)c1 [Compound 340, 3-((1r,4R)—N-((1r,4R)-4-(4-((dimethylamino)methyl)pyridin-2-yloxy)cyclohexyl)-4-methylcyclohexanecarboxamido)-5-((1-(trifluoromethyl)cyclopropyl)ethynyl)thiophene-2-carboxylic acid] | 100%
CN(C)Cc1ccnc(O[C@H]2CC[C@H](N(c3cc(C#CC(C)(C)C(F)(F)F)sc3C(=O)O)C(=O)[C@H]3CC[C@H](C)CC3)CC2)c1 [Compound 341, 3-((1r,4R)—N-((1r,4R)-4-(4-((dimethylamino)methyl)pyridin-2-yloxy)cyclohexyl)-4-methylcyclohexanecarboxamido)-5-(4,4,4-trifluoro-3,3-dimethylbut-1-ynyl)thiophene-2-carboxylic acid] | 100%
C[C@H]1CC[C@H](C(=O)N(c2cc(C#CC3(C(F)(F)F)CC3)sc2C(=O)O)[C@H]2CC[C@H](Oc3ccc(O)nn3)CC2)CC1 [Compound 342, 3-((1r,4R)—N-((1r,4R)-4-(6-hydroxypyridazin-3-yloxy)cyclohexyl)-4-methylcyclohexanecarboxamido)-5-((1-(trifluoromethyl)cyclopropyl)ethynyl)thiophene-2-carboxylic acid] | 100%
CC(C)(C#Cc1cc(N(C(=O)[C@H]2CC[C@H](C)CC2)[C@H]2CC[C@H](Oc3ccc(O)nn3)CC2)c(C(=O)O)s1)C(F)(F)F [Compound 343, 3-((1r,4R)—N-((1r,4R)-4-(6-hydroxypyridazin-3-yloxy)cyclohexyl)-4-methylcyclohexanecarboxamido)-5-(4,4,4-trifluoro-3,3-dimethylbut-1-ynyl)thiophene-2-carboxylic acid] | 100%
C[C@H]1CC[C@H](C(=O)N(c2cc(C#CC3(C(F)(F)F)CC3)sc2C(=O)O)[C@H]2CC[C@H](Oc3ccncn3)CC2)CC1 [Compound 344, 3-((1r,4R)-4-methyl-N-((1r,4R)-4-(pyrimidin-4-yloxy)cyclohexyl)cyclohexanecarboxamido)-5-(2-(1-(trifluoromethyl)cyclopropyl)ethynyl)thiophene-2-carboxylic acid] | 99.8%
C[C@H]1CC[C@H](C(=O)N(c2cc(C#CC3(C(F)(F)F)CC3)sc2C(=O)O)[C@H]2CC[C@H](OC3CCOC3)CC2)CC1 (stereo partly drawn) [Compound 345, 3-((1r,4R)-4-methyl-N-((1r,4R)-4-(tetrahydrofuran-3-yloxy)cyclohexyl)cyclohexanecarboxamido)-5-(2-(1-(trifluoromethyl)cyclopropyl)ethynyl)thiophene-2-carboxylic acid] | 100%
C[C@H]1CC[C@H](C(=O)N(c2cc(C#CC3(C(F)(F)F)CC3)sc2C(=O)O)[C@H]2CC[C@@H](OC3CCOC3)CC2)CC1 (stereo partly drawn) [Compound 346, 3-((1r,4R)-4-methyl-N-((1s,4S)-4-(tetrahydrofuran-3-yloxy)cyclohexyl)cyclohexanecarboxamido)-5-(2-(1-(trifluoromethyl)cyclopropyl)ethynyl)thiophene-2-carboxylic acid] | 99.5%
